Assay results from ChEMBL document CHEMBL1156733, “Structure-activity relationship studies on a series of piperazinebenzylalcohols and their ketone and amine analogs as melanocortin-4 receptor ligands” (Bioorg Med Chem Lett, 2008).

Experiments:
Melanocortin receptor 4 [1] = biological target: T1, Melanocortin receptor 4 (Homo sapiens, UniProt P32245)
Melanocortin receptor 4 [2] = biological target: Melanocortin receptor 4 (Homo sapiens, UniProt P32245, D122A); assay: Binding affinity to human MC4 receptor Asp122Ala mutant
Sequence of Melanocortin receptor 4 (Homo sapiens, UniProt P32245, D122A) (P32245 whole entry D122A): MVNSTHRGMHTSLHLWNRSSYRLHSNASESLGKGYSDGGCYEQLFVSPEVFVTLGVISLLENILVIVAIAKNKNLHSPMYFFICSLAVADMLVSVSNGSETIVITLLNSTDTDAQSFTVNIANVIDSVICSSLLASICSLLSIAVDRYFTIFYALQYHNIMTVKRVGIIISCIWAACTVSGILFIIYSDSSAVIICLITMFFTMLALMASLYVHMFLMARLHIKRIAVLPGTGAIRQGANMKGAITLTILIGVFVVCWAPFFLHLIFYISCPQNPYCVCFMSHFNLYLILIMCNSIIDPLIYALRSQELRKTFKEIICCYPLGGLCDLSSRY

Homo sapiens = organism: Homo sapiens; assay: Selectivity for human MC4 receptor over human MC4 receptor Asp122Ala mutant
Melanocortin receptor 4 [3] = biological target: T1, Melanocortin receptor 4; assay: Antagonist activity at human MC4 receptor expressed in cells assessed as inhibition of alpha-MSH-stimulated cAMP production; type: functional, cell-based
Melanocortin receptor 3 = Melanocortin receptor 3 (Homo sapiens, UniProt P41968); assay: Binding affinity to MC3 receptor
Sequence of Melanocortin receptor 3 (P41968 whole entry): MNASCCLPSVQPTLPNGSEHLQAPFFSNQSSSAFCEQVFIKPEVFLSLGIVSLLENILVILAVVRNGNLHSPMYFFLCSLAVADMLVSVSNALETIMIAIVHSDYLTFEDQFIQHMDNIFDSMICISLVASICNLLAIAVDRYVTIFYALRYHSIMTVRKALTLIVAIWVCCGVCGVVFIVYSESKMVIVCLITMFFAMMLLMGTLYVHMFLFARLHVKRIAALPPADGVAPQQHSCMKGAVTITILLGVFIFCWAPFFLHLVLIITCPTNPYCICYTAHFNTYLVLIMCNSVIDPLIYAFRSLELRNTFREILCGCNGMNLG

[4] = tested on: Melanocortin receptor 1 (Homo sapiens); assay: Inhibition of human MC1 receptor at 10 uM
Melanocortin receptor 5 = Melanocortin receptor 5 (Homo sapiens, UniProt P33032); assay: Binding affinity to MC5 receptor
Sequence of Melanocortin receptor 5 (P33032 whole entry): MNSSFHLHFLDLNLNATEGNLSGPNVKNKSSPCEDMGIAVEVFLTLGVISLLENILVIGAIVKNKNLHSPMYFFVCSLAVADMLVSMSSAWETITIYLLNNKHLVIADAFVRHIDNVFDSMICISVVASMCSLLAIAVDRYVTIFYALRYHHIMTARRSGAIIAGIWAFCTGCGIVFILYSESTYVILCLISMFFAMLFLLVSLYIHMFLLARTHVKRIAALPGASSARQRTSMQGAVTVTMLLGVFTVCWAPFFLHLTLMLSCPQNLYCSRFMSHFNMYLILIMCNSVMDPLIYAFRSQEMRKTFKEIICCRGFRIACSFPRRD

[5] = Lipophilicity, log D of the compound; type: physicochemical; conditions: octanol/water
[6] = Metabolic stability assessed as intrinsic clearance in human liver microsomes; type: ADME, Microsome
[7] = Plasma clearance in rat at 5 mg/kg, iv; type: ADME, organism-based; parameters: dose 5 mg/kg, route intravenous
[8] = Half life in rat at 5 mg/kg, iv; type: ADME, organism-based; parameters: dose 5 mg/kg, route intravenous; conditions: in vivo
[9] = Volume of distribution in rat at 5 mg/kg, iv; type: ADME, organism-based; parameters: dose 5 mg/kg, route intravenous; conditions: in vivo
[10] = Oral bioavailability in rat at 10 mg/kg; type: ADME, organism-based; conditions: in vivo
Brain = assay: Drug level in rat brain rat at 5 mg/kg, iv; type: ADME, organism-based; parameters: dose 5 mg/kg, route intravenous; conditions: in vivo
[11] = Ratio of drug level in brain to plasma in rat at 5 mg/kg, iv after 1 hr; type: ADME, organism-based; parameters: dose 5 mg/kg, route intravenous

T1 sequence (P32245 whole entry): as the sequence (P32245 whole entry D122A) above, with A122D counted along it

Structure (SMILES)	Ki (Melanocortin receptor 4 [1])	also measured
CCC(O)(CC)c1ccccc1N1CCN(C(=O)[C@@H](Cc2ccc(Cl)cc2Cl)NC(=O)C(C)(C)N)CC1	38 nM	–
CC(C)CC(=O)c1ccccc1N1CCN(C(=O)[C@@H](Cc2ccc(Cl)cc2Cl)N(CC(C)C)CC(C)C)CC1	> 10000 nM	–
COc1cccc(CC(O)c2ccccc2N2CCN(C(=O)[C@@H](Cc3ccc(Cl)cc3Cl)NC(=O)CCN)CC2)c1 (stereo partly drawn)	66 nM	–
CC(C)C(O)c1ccccc1N1CCN(C(=O)[C@@H](Cc2ccc(Cl)cc2Cl)NC(=O)CCN)CC1 (stereo partly drawn)	110 nM	–
CNCC(=O)N[C@H](Cc1ccc(Cl)cc1Cl)C(=O)N1CCN(c2ccccc2C(=O)CC(C)C)CC1	31 nM	Ki (Melanocortin receptor 4 [2]): 290 nM; fold change (FC) (Homo sapiens): 9
CCCC(O)c1ccccc1N1CCN(C(=O)[C@@H](Cc2ccc(Cl)cc2Cl)NC(=O)CCN)CC1 (stereo partly drawn)	26 nM	–
C=CC(C)C(O)c1ccccc1N1CCN(C(=O)[C@@H](Cc2ccc(Cl)cc2Cl)NC(=O)CCN)CC1 (stereo partly drawn)	29 nM	–
CC(C)CC(N)c1ccccc1N1CCN(C(=O)[C@@H](Cc2ccc(Cl)cc2Cl)NC(=O)CN)CC1 (stereo partly drawn)	2 nM	–
CCCCN(CCCC)[C@H](Cc1ccc(Cl)cc1Cl)C(=O)N1CCN(c2ccccc2C(=O)CC(C)C)CC1	1700 nM	–
CCC(O)(CC)c1ccccc1N1CCN(C(=O)[C@@H](Cc2ccc(Cl)cc2Cl)NC(=O)N2CCCC2=O)CC1	110 nM	–
CCC(O)(CC)c1ccccc1N1CCN(C(=O)[C@@H](Cc2ccc(Cl)cc2Cl)NC(=O)CN(C)C)CC1	9.4 nM	IC50 (Melanocortin receptor 4 [3]): 400 nM; Ki (Melanocortin receptor 3): 3100 nM; inhibition [4]: 34%; Ki (Melanocortin receptor 5): 950 nM
CC(C)CC(=O)c1ccccc1N1CCN(C(=O)[C@@H](Cc2ccc(Cl)cc2Cl)NC(C)C)CC1	560 nM	–
CC(C)CC(N)c1ccccc1N1CCN(C(=O)[C@@H](Cc2ccc(Cl)cc2Cl)NC(=O)C(C)(C)N)CC1 (stereo partly drawn)	7.7 nM	–
CC(C)CC(N)c1ccccc1N1CCN(C(=O)[C@@H](Cc2ccc(Cl)cc2Cl)N(CC2CC2)CC2CC2)CC1 (stereo partly drawn)	350 nM	–
CC(C)CC(=O)c1ccccc1N1CCN(C(=O)[C@@H](Cc2ccc(Cl)cc2Cl)N(Cc2ccccn2)Cc2ccccn2)CC1	110 nM	–
CC(C)CC(O)c1ccccc1N1CCN(C(=O)[C@@H](Cc2ccc(Cl)cc2Cl)NC(=O)C(C)(C)N)CC1 (stereo partly drawn)	46 nM	–
CC(C)CC(O)c1ccccc1N1CCN(C(=O)[C@@H](Cc2ccc(Cl)cc2Cl)N(CC2CC2)CC2CC2)CC1 (stereo partly drawn)	> 10000 nM	–
CC(C)CC(O)c1ccccc1N1CCN(C(=O)[C@@H](Cc2ccc(Cl)cc2Cl)NC(=O)C2CCCNC2)CC1 (stereo partly drawn)	49 nM	–
CC(C)CC(O)c1ccccc1N1CCN(C(=O)[C@@H](Cc2ccc(Cl)cc2Cl)N(CC(C)C)CC(C)C)CC1 (stereo partly drawn)	> 10000 nM	–
CC(C)C[C@H](O)c1ccccc1N1CCN(C(=O)[C@@H](Cc2ccc(Cl)cc2Cl)NC(=O)CN)CC1	28 nM	–
CCC(O)(CC)c1ccccc1N1CCN(C(=O)[C@@H](Cc2ccc(Cl)cc2Cl)NC(=O)[C@H](C)N)CC1	18 nM	–
CCCCCN(CCCCC)[C@H](Cc1ccc(Cl)cc1Cl)C(=O)N1CCN(c2ccccc2C(=O)CC(C)C)CC1	5800 nM	–
CC(C)CC(O)c1ccccc1N1CCN(C(=O)[C@@H](Cc2ccc(Cl)cc2Cl)N(Cc2ccccn2)Cc2ccccn2)CC1 (stereo partly drawn)	83 nM	–

Structure (SMILES)	Ki (Melanocortin receptor 4 [1])	also measured
CC(C)CC(=O)c1ccccc1N1CCN(C(=O)[C@@H](Cc2ccc(Cl)cc2Cl)NCC2CCOC2)CC1 (stereo partly drawn)	150 nM	–
CC(C)CC(N)c1ccccc1N1CCN(C(=O)[C@@H](Cc2ccc(Cl)cc2Cl)NCC2CCOC2)CC1 (stereo partly drawn)	15 nM	–
CSCCCN[C@H](Cc1ccc(Cl)cc1Cl)C(=O)N1CCN(c2ccccc2C(N)CC(C)C)CC1 (stereo partly drawn)	21 nM	–
CCCC(C)(O)c1ccccc1N1CCN(C(=O)[C@@H](Cc2ccc(Cl)cc2Cl)NC(=O)CCN)CC1 (stereo partly drawn)	11 nM	–
CC(C)CC(=O)c1ccccc1N1CCN(C(=O)[C@@H](Cc2ccc(Cl)cc2Cl)NC(=O)C(C)(C)N)CC1	110 nM	–
CCC(C)C(O)c1ccccc1N1CCN(C(=O)[C@@H](Cc2ccc(Cl)cc2Cl)NC(=O)CCN)CC1 (stereo partly drawn)	47 nM	–
CC(C)CC(=O)c1ccccc1N1CCN(C(=O)[C@@H](Cc2ccc(Cl)cc2Cl)NC(=O)CCN)CC1	24 nM	IC50 (Melanocortin receptor 4 [3]): 650 nM; Ki (Melanocortin receptor 3): 2300 nM; inhibition [4]: 42%; logD [5]: 2.4; CLint scaled [6]: 18.4 mL/min/kg; Ki (Melanocortin receptor 5): 330 nM
CNC(C)(C)C(=O)N[C@H](Cc1ccc(Cl)cc1Cl)C(=O)N1CCN(c2ccccc2C(=O)CC(C)C)CC1	91 nM	–
CSCCCN[C@H](Cc1ccc(Cl)cc1Cl)C(=O)N1CCN(c2ccccc2C(O)CC(C)C)CC1 (stereo partly drawn)	330 nM	–
CNC(C)(C)C(=O)N[C@H](Cc1ccc(Cl)cc1Cl)C(=O)N1CCN(c2ccccc2C(N)CC(C)C)CC1 (stereo partly drawn)	4.7 nM	–
CC(C)C[C@@H](O)c1ccccc1N1CCN(C(=O)[C@@H](Cc2ccc(Cl)cc2Cl)NC(=O)CN)CC1	9 nM	–
CCCCCN(CCCCC)[C@H](Cc1ccc(Cl)cc1Cl)C(=O)N1CCN(c2ccccc2C(N)CC(C)C)CC1 (stereo partly drawn)	350 nM	–
CC(C)CC(O)c1ccccc1N1CCN(C(=O)[C@@H](Cc2ccc(Cl)cc2Cl)NC(=O)CN(C)C)CC1 (stereo partly drawn)	9.6 nM	IC50 (Melanocortin receptor 4 [3]): 250 nM; Ki (Melanocortin receptor 3): 3100 nM; inhibition [4]: 36%; Ki (Melanocortin receptor 5): 1300 nM
NCCC(=O)N[C@H](Cc1ccc(Cl)cc1Cl)C(=O)N1CCN(c2ccccc2C(O)CCc2ccccc2)CC1 (stereo partly drawn)	32 nM	–
CCC(O)(CC)c1ccccc1N1CCN(C(=O)[C@@H](Cc2ccc(Cl)cc2Cl)NC(=O)CNC)CC1	13 nM	–
NCCC(=O)N[C@H](Cc1ccc(Cl)cc1Cl)C(=O)N1CCN(c2ccccc2C(O)Cc2ccccc2)CC1 (stereo partly drawn)	54 nM	–
CC(C)CC(N)c1ccccc1N1CCN(C(=O)[C@@H](Cc2ccc(Cl)cc2Cl)NC(C)C)CC1 (stereo partly drawn)	53 nM	–
CCC(O)(CC)c1ccccc1N1CCN(C(=O)[C@@H](Cc2ccc(Cl)cc2Cl)NC(=O)OC(C)(C)C)CC1	390 nM	–
CSCCCN[C@H](Cc1ccc(Cl)cc1Cl)C(=O)N1CCN(c2ccccc2C(=O)CC(C)C)CC1	230 nM	–
COc1ccccc1CC(O)c1ccccc1N1CCN(C(=O)[C@@H](Cc2ccc(Cl)cc2Cl)NC(=O)CCN)CC1 (stereo partly drawn)	66 nM	–
NCCC(=O)N[C@H](Cc1ccc(Cl)cc1Cl)C(=O)N1CCN(c2ccccc2CO)CC1	870 nM	–
CC(C)CC(=O)c1ccccc1N1CCN(C(=O)[C@@H](Cc2ccc(Cl)cc2Cl)NC(=O)CN)CC1	33 nM	–
CCC(O)(CC)c1ccccc1N1CCN(C(=O)[C@@H](Cc2ccc(Cl)cc2Cl)NC(=O)[C@@H](C)N)CC1	65 nM	–

Structure (SMILES)	Ki (Melanocortin receptor 4 [1])	also measured
CC(C)CC(N)c1ccccc1N1CCN(C(=O)[C@@H](Cc2ccc(Cl)cc2Cl)N(CC(C)C)CC(C)C)CC1 (stereo partly drawn)	1200 nM	–
CCCCCN(CCCCC)[C@H](Cc1ccc(Cl)cc1Cl)C(=O)N1CCN(c2ccccc2C(O)CC(C)C)CC1 (stereo partly drawn)	3200 nM	–
CNCC(=O)N[C@H](Cc1ccc(Cl)cc1Cl)C(=O)N1CCN(c2ccccc2C(O)CC(C)C)CC1 (stereo partly drawn)	8.3 nM	IC50 (Melanocortin receptor 4 [3]): 420 nM; Ki (Melanocortin receptor 4 [2]): 500 nM; Ki (Melanocortin receptor 3): 2500 nM; inhibition [4]: 34%; fold change (FC) (Homo sapiens): 60; Ki (Melanocortin receptor 5): 1800 nM
CNC(C)(C)C(=O)N[C@H](Cc1ccc(Cl)cc1Cl)C(=O)N1CCN(c2ccccc2C(O)CC(C)C)CC1 (stereo partly drawn)	21 nM	–
CCC(O)(CC)c1ccccc1N1CCN(C(=O)[C@@H](Cc2ccc(Cl)cc2Cl)NC(=O)CCN)CC1	11 nM	–
CC(C)CC(=O)c1ccccc1N1CCN(C(=O)[C@@H](Cc2ccc(Cl)cc2Cl)N(CC2CC2)CC2CC2)CC1	> 10000 nM	–
CC(C)CC(O)c1ccccc1N1CCN(C(=O)[C@H](N)Cc2ccc(Cl)cc2Cl)CC1 (stereo partly drawn)	280 nM	–
CC(C)CC(N)c1ccccc1N1CCN(C(=O)[C@@H](Cc2ccc(Cl)cc2Cl)N(Cc2ccccn2)Cc2ccccn2)CC1 (stereo partly drawn)	2 nM	–
COc1ccc(CCC(O)c2ccccc2N2CCN(C(=O)[C@@H](Cc3ccc(Cl)cc3Cl)NC(=O)CCN)CC2)cc1 (stereo partly drawn)	23 nM	–
CCCCN(CCCC)[C@H](Cc1ccc(Cl)cc1Cl)C(=O)N1CCN(c2ccccc2C(O)CC(C)C)CC1 (stereo partly drawn)	1400 nM	–
CC(C)CC(N)c1ccccc1N1CCN(C(=O)[C@@H](Cc2ccc(Cl)cc2Cl)NC(=O)[C@H](C)N)CC1 (stereo partly drawn)	4.2 nM	–
CCC(O)(CC)c1ccccc1N1CCN(C(=O)[C@@H](Cc2ccc(Cl)cc2Cl)NC(=O)NC2CC2)CC1	42 nM	–
CC(C)CC(O)c1ccccc1N1CCN(C(=O)[C@@H](Cc2ccc(Cl)cc2Cl)NC(C)C)CC1 (stereo partly drawn)	380 nM	–
CC(C)CC(=O)c1ccccc1N1CCN(C(=O)[C@@H](Cc2ccc(Cl)cc2Cl)NC(=O)[C@H](C)N)CC1	26 nM	–
CC(C)CC(O)c1ccccc1N1CCN(C(=O)[C@@H](Cc2ccc(Cl)cc2Cl)NC(=O)[C@H](C)N)CC1 (stereo partly drawn)	16 nM	–
CCC(O)(CC)c1ccccc1N1CCN(C(=O)[C@@H](Cc2ccc(Cl)cc2Cl)NC(=O)CN)CC1	26 nM	–
CCOC(=O)[C@H]1CCCC[C@@H]1N1CCN(C(=O)[C@@H](Cc2ccc(Cl)cc2Cl)NC(=O)CCN)CC1	6.3 nM	–
CNCC(=O)N[C@H](Cc1ccc(Cl)cc1Cl)C(=O)N1CCN(c2ccccc2C(N)CC(C)C)CC1 (stereo partly drawn)	1.7 nM	Ki (Melanocortin receptor 4 [2]): 99 nM; fold change (FC) (Homo sapiens): 58
CC(C)CC(O)c1ccccc1N1CCN(C(=O)[C@@H](Cc2ccc(Cl)cc2Cl)NCC2CCOC2)CC1 (stereo partly drawn)	89 nM	–
CC(C)CC(O)c1ccccc1N1CCN(C(=O)[C@@H](Cc2ccc(Cl)cc2Cl)NC(=O)CN)CC1 (stereo partly drawn)	13 nM	–
CCCCN(CCCC)[C@H](Cc1ccc(Cl)cc1Cl)C(=O)N1CCN(c2ccccc2C(N)CC(C)C)CC1 (stereo partly drawn)	120 nM	–
CC(C)CC(N)c1ccccc1N1CCN(C(=O)[C@@H](Cc2ccc(Cl)cc2Cl)NC(=O)CCN)CC1 (stereo partly drawn)	3.2 nM	clearance [7]: 68 mL/min/kg; half-life [8]: 7.1 h; IC50 (Melanocortin receptor 4 [3]): 250 nM; Ki (Melanocortin receptor 3): 870 nM; Vd [9]: 41.5 L/kg; logD [5]: 0.15; CLint scaled [6]: 3.6 mL/min/kg; bioavailability [10]: 2.1%; Drug uptake (Brain): 245 ng/g; Kp at 1 h [11]: 1.8; Ki (Melanocortin receptor 5): 540 nM
